One molecule from patent US8592466B2, “Methods for treating conditions caused by higher-than-normal dopaminergic activity in basal ganglia” (Neuropill, Inc., priority 2008, dated 2013) can be followed below.

This series in a line: Phase I cocaine interaction study: heart rate and blood pressure. The settings on record: cocaine 20 mg and 40 mg i.v., most P-values<0.05.

With `COC(=O)[C@H]1[C@@H](OC(=O)c2ccccc2)C[C@@H]2CC[C@H]1N2C` [cocaine, reference compound], the “HR/SBP/DBP after cocaine infusion” value is recorded as “significant elevation”.
